The record followed here is publication PMC7794376 (Nature Communications, 2021).

Common to all, as to format: biochemical
Assay [1] addresses T1, MtbCoaBC (Mycobacterium tuberculosis, UniProt P9WNZ1). The assay is described as follows: High-throughput end-point pyrophosphate quantification assay (Biomol Green).
Assay [2] has as its target T1, MtbCoaBC. The assay is described as follows: CMP quantification assay (UPLC), second half of CoaB reaction, variable L-cysteine. Conditions: for CMP formation rate, uM CMP/uM protein.s-1: MtbCoaBC 32nM, replicates R1-R3.
The target of assay [3] is T1, MtbCoaBC. The assay is described as follows: biochemical. To be noted: for Activity %: relative to average CT; for Activity % / Inhibition % / Activity: replicates R1-R3; for Activity: slope of absorbance at 360 nm vs time (s); for inhibition, replicates / reaction rate (slope of absorbance at 360 nm over time), replicates: IC50 MtbCoaBC AcCoA.
The target in assay [4] is T1, MtbCoaBC. The assay is described as follows: Competition assays, first half of CoaB reaction (EnzChek, variable CTP or PPA). Conditions: for mode of inhibition: in words.
[5] abbreviates: AcCoA concentration 512 (log 2.70927).
[6] abbreviates: AcCoA concentration 1024 (log 3.0103).

Several values for one entry are separate records, joined by “and”; a condition that tells them apart may be missing. Equal values may be shown once.

T1 sequence (P9WNZ1 whole entry): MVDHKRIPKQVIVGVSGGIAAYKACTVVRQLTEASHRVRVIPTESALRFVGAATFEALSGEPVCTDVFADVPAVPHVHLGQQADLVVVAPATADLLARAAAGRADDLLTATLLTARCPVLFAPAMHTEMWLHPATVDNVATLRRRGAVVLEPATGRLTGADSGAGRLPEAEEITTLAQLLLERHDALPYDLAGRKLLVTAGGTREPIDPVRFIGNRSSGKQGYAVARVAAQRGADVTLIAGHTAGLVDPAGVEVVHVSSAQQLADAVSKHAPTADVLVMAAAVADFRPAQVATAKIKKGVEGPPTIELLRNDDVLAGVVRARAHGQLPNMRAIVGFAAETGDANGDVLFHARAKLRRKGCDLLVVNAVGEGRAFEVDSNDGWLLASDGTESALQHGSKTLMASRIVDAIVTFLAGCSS

What is called IC50 is the concentration needed to halve the response being measured. At MtbCoaBC [1], `O=c1cc(-c2ccccc2)oc2cc(O)c(O)c(O)c12` [2a] returned a concentration for half-maximal inhibition (IC50) of 3.1 µM.

The term Ki denotes the equilibrium dissociation constant of an inhibitor or competing ligand from its target. As to `CC(=O)SCCNC(=O)CCNC(=O)[C@H](O)C(C)(C)COP(=O)(O)OP(=O)(O)OC[C@H]1O[C@@H](n2cnc3c(N)ncnc32)[C@H](O)[C@@H]1OP(=O)(O)O` [AcCoA, acetyl-CoA], the “CMP formation rate, uM CMP/uM protein.s-1” value on MtbCoaBC [2] (32uM AcCoA, 31.25 uM cysteine) is 0.1004 uM CMP/uM protein.s-1 and 0.1195 uM CMP/uM protein.s-1 and 0.1103 uM CMP/uM protein.s-1; at MtbCoaBC [2] (32uM AcCoA, 62.5 uM cysteine) it was 0.1434 uM CMP/uM protein.s-1 and 0.1547 uM CMP/uM protein.s-1 and 0.1394 uM CMP/uM protein.s-1; at MtbCoaBC [2] (32uM AcCoA, 250 uM cysteine), 0.2114 uM CMP/uM protein.s-1 and 0.2235 uM CMP/uM protein.s-1 and 0.2345 uM CMP/uM protein.s-1; on MtbCoaBC [2] (32uM AcCoA, 500 uM cysteine) it was 0.2276 uM CMP/uM protein.s-1 and 0.2314 uM CMP/uM protein.s-1 and 0.2458 uM CMP/uM protein.s-1; on MtbCoaBC [2] (64uM AcCoA, 31.25 uM cysteine) it was 0.08802 uM CMP/uM protein.s-1 and 0.06801 uM CMP/uM protein.s-1 and 0.07425 uM CMP/uM protein.s-1; on MtbCoaBC [2] (64uM AcCoA, 62.5 uM cysteine), 0.1006 uM CMP/uM protein.s-1 and 0.1253 uM CMP/uM protein.s-1 and 0.1155 uM CMP/uM protein.s-1. In addition, the “CMP formation rate, uM CMP/uM protein.s-1” value on MtbCoaBC [2] (64uM AcCoA, 250 uM cysteine) is 0.1479 uM CMP/uM protein.s-1 and 0.156 uM CMP/uM protein.s-1 and 0.1565 uM CMP/uM protein.s-1; at MtbCoaBC [2] (64uM AcCoA, 500 uM cysteine) it was 0.1756 uM CMP/uM protein.s-1 and 0.1564 uM CMP/uM protein.s-1 and 0.1555 uM CMP/uM protein.s-1; on MtbCoaBC [2] (128uM AcCoA, 31.25 uM cysteine), 0.04605 uM CMP/uM protein.s-1 and 0.05632 uM CMP/uM protein.s-1 and 0.0514 uM CMP/uM protein.s-1; on MtbCoaBC [2] (128uM AcCoA, 62.5 uM cysteine), 0.06616 uM CMP/uM protein.s-1 and 0.09648 uM CMP/uM protein.s-1 and 0.09325 uM CMP/uM protein.s-1; at MtbCoaBC [2] (128uM AcCoA, 250 uM cysteine), 0.09625 uM CMP/uM protein.s-1 and 0.1011 uM CMP/uM protein.s-1 and 0.1018 uM CMP/uM protein.s-1; at MtbCoaBC [2] (128uM AcCoA, 500 uM cysteine), 0.1011 uM CMP/uM protein.s-1 and 0.1154 uM CMP/uM protein.s-1 and 0.1123 uM CMP/uM protein.s-1. Also, the mode of inhibition result at MtbCoaBC [2] (relative to L-cysteine, in words) is listed as “non-competitive inhibition”; at MtbCoaBC [4] (relative to CTP), “competitive”; on MtbCoaBC [4] (relative to PPA) it was “competitive”. In addition, the Ki at MtbCoaBC [2] (variable substrate L-cysteine) stood at 62.1 ± 2 µM; on MtbCoaBC [4] (variable substrate CTP) it was 22.5 ± 1.7 µM; on MtbCoaBC [4] (variable substrate PPA) it was 22.4 ± 1.4 µM. Also, the Activity % was 102.2% and 99.12% and 97.26% at MtbCoaBC [3] (8 uM AcCoA); 97.8% and 95.95% at MtbCoaBC [3] (16 uM AcCoA); 83.56% and 84.79% and 80.02% on MtbCoaBC [3] (32 uM AcCoA); 72.03% and 75.67% and 69.98% on MtbCoaBC [3] (64 uM AcCoA); 46.95% and 48.75% and 44.16% at MtbCoaBC [3] (128 uM AcCoA); 25.68% and 25.48% and 26.76% on MtbCoaBC [3] (256 uM AcCoA). In addition, the Inhibition % at MtbCoaBC [3] (8 uM AcCoA) is 0.88% and 2.74% and -2.21%; on MtbCoaBC [3] (16 uM AcCoA) it was 2.20% and 4.05%; at MtbCoaBC [3] (32 uM AcCoA), 15.21% and 19.98% and 16.44%; at MtbCoaBC [3] (64 uM AcCoA), 24.33% and 30.02% and 27.97%; on MtbCoaBC [3] (128 uM AcCoA) it was 51.25% and 55.84% and 53.05%; at MtbCoaBC [3] (256 uM AcCoA), 74.52% and 73.24% and 74.32%. The Activity is 0.0001687 and 0.0001636 and 0.0001606 on MtbCoaBC [3] (8 uM AcCoA); 0.0001621 and 0.0001615 and 0.0001584 at MtbCoaBC [3] (16 uM AcCoA); 0.0001379 and 0.00014 and 0.0001321 on MtbCoaBC [3] (32 uM AcCoA); 0.0001189 and 0.0001249 and 0.0001155 at MtbCoaBC [3] (64 uM AcCoA); 0.000077520 and 0.000080489 and 0.000072900 on MtbCoaBC [3] (128 uM AcCoA); 0.000042403 and 0.000042072 and 0.000044186 on MtbCoaBC [3] (256 uM AcCoA). Besides, the IC50 on MtbCoaBC [3] (CoaB activity, […] CTP, […] PPA, 500 µM L-cysteine, average of three independent experiments ± SD, read-out: IC50 EnzChek MtbCoaBC) stood at 121 ± 9 µM. Moreover, the “inhibition, replicates” value is 81.65 and 87.30 and 84.02 against MtbCoaBC [3] (setting [5]); 99.03 and 98.19 and 97.42 on MtbCoaBC [3] (setting [6]). The “reaction rate (slope of absorbance at 360 nm over time), replicates” value on MtbCoaBC [3] (setting [5]) was 0.000026380 and 0.000030299 and 0.000020964; on MtbCoaBC [3] (setting [6]), 0.000004262 and 0.000001602 and 0.000002982. Further, the Inibition type entry at MtbCoaBC [4] (variable substrate CTP) and at MtbCoaBC [4] (variable substrate PPA) was “C (C competitive inhibition)” in each case.

Regarding `O=C(c1ccccc1)c1ccc(O)c(O)c1O` [compound 1a], at MtbCoaBC [1] (MtbCoaB activity, end-point, 2 µM CTP, 40 µM L-cysteine, 30 µM PPA, read-out: IC50 biomol green assay), the concentration for half-maximal inhibition (IC50) worked out at 9 µM.
